One assay has as its system INS-1E. Kind of assay: (§1) Stimulation of insulin secretion in rat INS-1E cells after 1 hr by alphaLISA assay in presence of 0.1 mM glucose. It counts as functional, cell-based. For orientation: In Alpha technology, singlet oxygen from a donor bead excites a nearby acceptor bead.
Assay [1] in a line: Stimulation of insulin secretion in rat INS-1E cells after 1 hr by alphaLISA assay in presence of 5 mM glucose relative to IBMX. In kind it is functional.
The nature of assay [2]: Stimulation of insulin secretion in rat INS-1E cells after 1 hr by alphaLISA assay in presence of 5 mM glucose. It counts as functional, cell-based.
For assay [3], the system named is Pancreatic islet. Kind of assay: Stimulation of insulin secretion in rat pancreatic islets at 3 uM in presence of 11 mM glucose. It counts as functional.
Assay [4] relates to Pancreatic islet. Kind of assay: Stimulation of insulin secretion in rat pancreatic islets at 3 uM in presence of 3 mM glucose. It counts as functional.
Assay [5] in a line: as §1. In kind it is functional, cell-based.
Assay [6] is described as follows: Stimulation of insulin secretion in rat INS-1E cells after 1 hr by alphaLISA assay in presence of 0.1 mM glucose relative to IBMX. In kind it is functional.
The test system of assay [7] is Pancreatic islet. Nature of the assay: Stimulation of insulin secretion in rat pancreatic islets in presence of 11 mM glucose. It counts as functional.

Activity calls are given as the source filed them. The rule behind the calls is not given here.

With `N=C1N[C@@H](c2ccccc2)C[C@H]2CC[C@H](CCCc3ccccc3)N12` (mixture of isomers), the outcome in the assay with INS-1E was inactive. Further, the Emax in assay [1] amounted to 31%. Further, the concentration for a half-maximal effect (EC50) in assay [2] was determined as 830 nM.
In the same order, the values of `N=C(N)N1C(CCc2ccccc2)CCC1Cc1ccccc1` (mixture of isomers) are “inactive”, 56% and 5740 nM.
On the same counts, the results for `N=C1N[C@@H](c2ccccc2)C[C@H]2CC[C@H](CCc3cccc(Br)c3)N12` are “inactive”, 26% and 450 nM.
Consider `N=C1N[C@H](c2ccccc2)C[C@H]2CC[C@H](CCc3ccccc3)N12`, for which the Emax in assay [1] worked out at 21%. For the same compound, the half-maximal effective concentration (EC50) in assay [2] came to 2740 nM.
As for `CC(C)(C)OC(=O)/N=C1\N[C@@H](c2ccccc2)C[C@H]2CC[C@H](CCc3ccccc3)N12`, the result with INS-1E was inactive. The EC50 in assay [2] was above 33000 nM.
For the compound `Cc1ccccc1[C@H]1C[C@H]2CC[C@H](CCc3ccccc3)N2C(=N)N1`, in the assay on Pancreatic islet [3], the result was Active. For the same compound, the outcome in the assay with Pancreatic islet [4] and in the assay on INS-1E was inactive. Also, in assay [1], the Emax was 59%. Moreover, the half-maximal effective concentration (EC50) in assay [2] amounted to 1010 nM.
With `N=C1N[C@@H](c2ccc(C(=O)O)cc2)C[C@H]2CC[C@H](CCc3ccccc3)N12`, the result in the assay with INS-1E was inactive. For the same compound, the EC50 in assay [2] was above 33000 nM.
As to `N=C1N[C@@H](c2ccccc2)C[C@H]2CC[C@H](CCc3ccccc3)N12`, the figures for the 50% effective concentration (EC50) in assay [5] and in assay [2] were above 33000 nM and 1250 nM, respectively. The Emax in assay [1] was 34%.
As for `N=C1N[C@@H](c2ccccc2)C[C@H]2CC[C@H](COc3ccccc3)N12`, the result in the assay on INS-1E was inactive. Also, the EC50 in assay [2] was above 33000 nM.
As for `N=C1NCC[C@H]2CC[C@H](CCc3ccccc3)N12`, the result with INS-1E was inactive. The concentration for a half-maximal effect (EC50) in assay [2] is above 33000 nM.
As for `Cc1cc(C)c(Nc2ccc(CC[C@H]3CC[C@@H]4C[C@H](c5ccccc5)NC(=N)N34)cc2)c(C)c1`, the outcome with INS-1E was inactive. For the same compound, the EC50 in assay [2] was above 33000 nM.
On to `N=C(N)N1C(CCc2ccccc2)CCC1CCc1ccccc1` (mixture of isomers), for which the outcome with INS-1E was inactive. In assay [1], the maximal response (Emax) stood at 29%. Moreover, the concentration giving a half-maximal response (EC50) in assay [2] was 4870 nM.
For the compound `N=C1N[C@@H](c2ccccc2)C[C@H]2CC[C@H](c3ccc(-c4ccccc4)cc3)N12`, in the assay on INS-1E, the result was inactive. Further, the EC50 in assay [2] is above 33000 nM.
In the same order, the values of `Cn1cc(CC[C@H]2CC[C@@H]3C[C@H](c4ccccc4)NC(=N)N23)cn1` are “inactive” and above 33000 nM.
For the compound `Cc1cc(C)c(Nc2ccccc2CC[C@H]2CC[C@@H]3C[C@H](c4ccccc4)NC(=N)N23)c(C)c1`, the result with INS-1E was inactive. In addition, the maximum response (Emax) in assay [1] was determined as 54%. For the same compound, the 50% effective concentration (EC50) in assay [2] was 1370 nM.
For the compound `N=C1N[C@@H](c2ccccc2)C[C@H]2CCCN12` (mixture of isomers), the outcome with INS-1E was inactive. Further, the 50% effective concentration (EC50) in assay [2] is above 33000 nM.
Turning to `CN1C(=N)N2[C@@H](CCc3ccccc3)CC[C@@H]2C[C@@H]1c1ccccc1`, the result in the assay with INS-1E was inactive. In addition, the Emax in assay [1] is 29%. The EC50 in assay [2] was found to be 670 nM.
For `N=C1N[C@@H](C2CCCCC2)C[C@H]2CC[C@H](CCc3ccccc3)N12`, the result in the assay with INS-1E was inactive. The Emax in assay [1] was determined as 40%. In addition, the EC50 in assay [2] stood at 750 nM.
`COc1ccc(Cl)cc1C(=O)NCCc1ccc(S(=O)(=O)NC(=O)NC2CCCCC2)cc1` [GLYBURIDE]: the figures for the Emax in assay [6] and in assay [1] were 17% and 50%, respectively. For the same compound, the EC50 in assay [5] came to 7 nM; in assay [2] it was 3 nM.
On to `Cc1cccc([C@H]2C[C@H]3CC[C@H](CCc4ccccc4)N3C(=N)N2)c1` (mixture of isomers), for which, in the assay on INS-1E, the result was inactive. Further, in assay [1], the Emax was determined as 20%. Further, in assay [2], the 50% effective concentration (EC50) was 1100 nM.
`O=C1N[C@@H](c2ccccc2)C[C@H]2CC[C@H](CCc3ccccc3)N12`: the outcome in the assay on INS-1E was inactive. Further, the 50% effective concentration (EC50) in assay [2] is above 33000 nM.
Regarding `N=C(NCc1ccccc1)N1CCCC1CCc1ccccc1` (centres undefined), the outcome with INS-1E was inactive. The Emax in assay [1] stood at 84%. Besides, in assay [2], the concentration giving a half-maximal response (EC50) is 2470 nM.
On to `C[C@@H]1[C@H]2CC[C@H](CCc3ccccc3)N2C(=N)N[C@H]1c1ccccc1`, for which, in the assay on Pancreatic islet [7], the result was Active. For the same compound, the concentration giving a half-maximal response (EC50) in assay [5] was above 33000 nM; in assay [2], 1300 nM. In assay [1], the Emax came out at 27%.
Regarding `N=C1N[C@@H](c2ccc(F)cc2)C[C@H]2CC[C@H](CCc3ccccc3)N12`, the outcome in the assay on INS-1E was inactive. For the same compound, the maximal response (Emax) in assay [1] worked out at 26%. Also, the EC50 in assay [2] was found to be 4040 nM.
For the compound `C/C=C/[C@H]1C[C@H]2CC[C@H](CCc3ccccc3)N2C(=N)N1`, the results for the 50% effective concentration (EC50) in assay [5] and in assay [2] were above 33000 nM and 1450 nM, respectively. Further, the Emax in assay [1] was found to be 21%.
Take `N=C1N[C@@H](c2ccccc2)C[C@H]2CC[C@H](CCc3ccncc3)N12`: in the assay on INS-1E, the result was inactive. In addition, the half-maximal effective concentration (EC50) in assay [2] is above 33000 nM.
For `N=C1N[C@@H](c2ccccc2)C[C@H]2CC[C@H](c3ccccc3)N12`, in the assay on INS-1E, the outcome was inactive. The EC50 in assay [2] was above 33000 nM.
`N=C1N[C@@H](c2ccc(C(F)(F)F)cc2)C[C@H]2CC[C@H](CCc3ccccc3)N12`: the outcome in the assay with INS-1E was inactive. For the same compound, the EC50 in assay [2] was above 33000 nM.
With `N=C(N)N1C(CCc2ccccc2)CCC1Sc1ccccc1` (centres undefined), the outcome in the assay with INS-1E was inactive. For the same compound, the maximal effect (Emax) in assay [1] is 62%. Besides, the EC50 in assay [2] was determined as 1330 nM.
With `CC(=O)Nc1ccc([C@H]2C[C@H]3CC[C@H](CCc4ccccc4)N3C(=N)N2)cc1`, the result with INS-1E was inactive. In addition, in assay [2], the half-maximal effective concentration (EC50) was above 33000 nM.
As to `CCC[C@H]1CC[C@@H]2C[C@H](c3ccccc3)NC(=N)N12`, in the assay with INS-1E, the outcome was inactive. Further, the Emax in assay [1] came out at 55%. For the same compound, in assay [2], the EC50 turned out to be 11100 nM.
On the same counts, the results for `N=C1N[C@@H](c2ccc(Br)cc2)C[C@H]2CC[C@H](CCc3ccccc3)N12` are “inactive”, 23% and 630 nM.
In the same order, the values of `N=C1N[C@@H](c2cccc(Br)c2)C[C@H]2CC[C@H](CCc3ccccc3)N12` are “inactive”, 22% and 1010 nM.
In the same order, the values of `Cc1ccc([C@H]2C[C@H]3CC[C@H](CCc4ccccc4)N3C(=N)N2)cc1` (mixture of isomers) are “inactive”, 40% and 1000 nM.
For `N=C(N)N1C(Sc2ccccc2)CCC1c1ccccc1` (mixture of isomers), in the assay with INS-1E, the result was inactive. Also, in assay [1], the maximal effect (Emax) is 54%. The EC50 in assay [2] is 5030 nM.
As for `N=C1N[C@@H](c2ccccc2)C[C@H]2CC[C@H](Cc3ccccc3)N12`, the outcome with INS-1E was inactive. The Emax in assay [1] was 52%. The EC50 in assay [2] was 4740 nM.
Regarding `COc1cccc([C@H]2C[C@H]3CC[C@H](CCc4ccccc4)N3C(=N)N2)c1` (mixture of isomers), the outcome in the assay with INS-1E was inactive. In assay [1], the maximal effect (Emax) came out at 21%. For the same compound, in assay [2], the EC50 amounted to 760 nM.
In the same order, the values of `N=C1N[C@@H](c2ccccc2Br)C[C@H]2CC[C@H](CCc3ccccc3)N12` (mixture of isomers) are “inactive”, 52% and 670 nM.
As for `Cc1cc(C)c(Nc2cccc(CC[C@H]3CC[C@@H]4C[C@H](c5ccccc5)NC(=N)N34)c2)c(C)c1`, the outcome in the assay with INS-1E was inactive. The EC50 in assay [2] was above 33000 nM.
As for `N=C1NC(c2ccccc2)CCN1CCCc1ccccc1` (centres undefined), the outcome in the assay on INS-1E was inactive. For the same compound, in assay [1], the Emax was 39%. Also, in assay [2], the EC50 worked out at 4790 nM.

One may read the Emax as the size of the effect at its maximum, as opposed to the concentration needed. As a reminder, the EC50 is the concentration that produces a half-maximal response.
